The record followed here is article PMC2674291 (The Open Biochemistry Journal, 2009).

Experiment [1] deals with Phenoloxidase of the susceptible strain (POs). The experiment can be described thus: absorbance at […] nm, initial rate, microtiter plate. The class given is biochemical, Plutella xylostella. The note with it: 20 mM PBS pH 6.5; room temperature; partially purified enzyme.
Experiment [2] concerns Phenoloxidase of the resistant strain (POr). The note with it: 20 mM PBS pH 6.5; room temperature; partially purified enzyme.

Structures are written as SMILES.

Broadly, the Km is the concentration of substrate that gives half-maximal velocity. Take `N[C@@H](Cc1ccc(O)c(O)c1)C(=O)O` [L-DOPA]: the Km in experiment [1] and in experiment [2] was 1110 µM each time.
